SMILES strings stand for the structures.

The nature of data set [1]: Drug metabolism in water assessed as formation of reactive intermediate during drug oxidation at 1 mM in the presence of HRP and H2O2 UV/vis spectrophotometry. Type of data set: physicochemical. As to conditions: buffer, 1000 µM; call rule not given here.
A short description of data set [2]: Induction of DNA degradation in calf thymus DNA at 2 mM after 2 hrs by PCI extraction-based spectrophotometric analysis in presence of HRP and H2O2. As to conditions: cattle, 2000 µM.
The nature of data set [3]: Induction of DNA degradation in calf thymus DNA at 0.5 mM after 1 hr by agarose gel electrophoresis in presence of HRP and H2O2. As to conditions: cattle, 500 µM.
Data set [4] in a line: Drug metabolism in water assessed as formation of 3-chloroiminodibenzyl in the presence of HRP and H2O2 UV/Vis spectrophotometry. Type of data set: physicochemical. Particulars: buffer.
Data set [5] concerns HRP (horseradish peroxidase). The data set can be described thus: Drug metabolism in sorensen buffer assessed as apparent Km for drug oxidation measured for 20 mins by Michaelis-Menten equation analysis in presence of HRP and H2O2. Type of data set: physicochemical. As to conditions: horseradish peroxidase (HRP) with H2O2 in Sorensen buffer.
Data set [6] in a line: Drug metabolism in sorensen buffer assessed as formation of reactive intermediate during drug oxidation at 92 uM at pH 7.4 up to 24 mins in the presence of H2O2 by UV/vis spectrophotometry. Type of data set: physicochemical. Particulars: pH 7.4, 0.4 h.
A short description of data set [7]: Drug metabolism in sorensen buffer assessed as formation of reactive intermediate during drug oxidation at 92 uM at pH 7.4 up to 24 mins in the presence of HRP and H2O2 by UV/vis spectrophotometry. Type of data set: physicochemical. Particulars: pH 7.4, 0.4 h.
The nature of data set [8]: Drug metabolism in sorensen buffer assessed as iminodibenzyl formation at pH 7.4 in the presence of HRP and H2O2 by GC/MS analysis. Type of data set: physicochemical.
Data set [9] can be described thus: Drug metabolism in sorensen buffer assessed as formation of reactive intermediate during drug oxidation at 92 uM at pH 7.4 up to 24 mins in the presence of HRP by UV/vis spectrophotometry. Type of data set: physicochemical. Particulars: pH 7.4, 0.4 h.

With `CN(C)CCCN1c2ccccc2CCc2ccc(Cl)cc21.Cl` [CLOMIPRAMINE HYDROCHLORIDE], the Drug metabolism entry in [1] and in [4] was “Active” throughout. Also, the Activity result in [2] and in data set [3] was “Toxic” each time.

As for `CNCCCN1c2ccccc2CCc2ccccc21.Cl` [DESIPRAMINE HYDROCHLORIDE], the Km (commonly the concentration of substrate that gives half-maximal velocity) at 20 min in data set [5] was found to be 4.4 mM. The Activity result in data set [2] and in [3] was “Toxic” in each case. Besides, the Drug metabolism result in data set [6] is recorded as “Not Active”; in data set [7] it was “Active”; in data set [8], “Active”; in data set [9] it was “Not Active”.

(Values after ChEMBL document CHEMBL2157959, “Reactive metabolites of desipramine and clomipramine: The kinetics of formation and reactivity with DNA” (Bioorg Med Chem, 2012).)
